Data: ChEMBL document CHEMBL5608210 (Eur J Med Chem, 2024)
Values belong to the compound of their own block, whether it stands above or below them. Active and inactive are the calls of the source. The rule behind the calls is not given here.

What was measured:
[1] = target: T1, Fatty acid-binding protein, liver (Homo sapiens) (UniProt P07148); test: Inhibition of human FABP1 at 9 uM incubated for 3 mins by fluorescence based analysis relative to control
T1 sequence (whole entry): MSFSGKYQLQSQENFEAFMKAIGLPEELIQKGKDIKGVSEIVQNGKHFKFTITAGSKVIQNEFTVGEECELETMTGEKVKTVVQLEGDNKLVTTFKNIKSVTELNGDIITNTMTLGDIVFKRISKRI

[2] = target: T2, Fatty acid-binding protein, liver (Homo sapiens, UniProt P07148); test: Inhibition of human FABP1 incubated for 3 mins by fluorescence based analysis
T2 sequence (P07148 whole entry): T1 sequence (whole entry)

[3] = target: Fatty acid-binding protein, adipocyte (Homo sapiens, UniProt P15090); test: Inhibition of FABP4 (unknown origin) incubated for 3 mins by fluorescence based analysis
Sequence of Fatty acid-binding protein, adipocyte (P15090 whole entry): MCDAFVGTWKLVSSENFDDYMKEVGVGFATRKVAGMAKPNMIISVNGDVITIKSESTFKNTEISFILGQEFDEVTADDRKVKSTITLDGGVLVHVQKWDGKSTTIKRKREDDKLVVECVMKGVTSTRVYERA

Mus musculus [4] = test: Anti-NAFLD activity in high-fat diet induced obese male C57BL/6 mouse model assessed as reduction in AUC (0 to 90 mins) at 20 mg/kg, po administered everyday for 4 weeks by oral glucose tolerance test; assay type: functional, organism-based
Mus musculus [5] = test: Anti-NAFLD activity in high-fat diet induced obese male C57BL/6 mouse model assessed as improvement in oral glucose tolerance at 20 mg/kg, po administered everyday for 4 weeks by oral glucose tolerance test; assay type: functional, organism-based
[6] = Toxicity in high-fat diet induced obese male C57BL/6 mouse model assessed as effect on ALT level in serum at 20 mg/kg/day, po measured after 4 weeks by automatic biochemical analyzer; assay type: organism-based; details: in vivo, 672 h
[7] = Toxicity in high-fat diet induced obese male C57BL/6 mouse model assessed as effect on AST level in serum at 20 mg/kg/day, po measured after 4 weeks by automatic biochemical analyzer; assay type: organism-based; details: in vivo, 672 h
[8] = Toxicity in high-fat diet induced obese male C57BL/6 mouse model assessed as effect on ALP level in serum at 20 mg/kg/day, po measured after 4 weeks by automatic biochemical analyzer; assay type: organism-based; details: in vivo, 672 h
[9] = Toxicity in high-fat diet induced obese male C57BL/6 mouse model assessed as effect on UA level in serum at 20 mg/kg/day, po measured after 4 weeks by automatic biochemical analyzer; assay type: organism-based; details: in vivo, 672 h
[10] = Toxicity in high-fat diet induced obese male C57BL/6 mouse model assessed as effect on TBA level in serum at 20 mg/kg/day, po measured after 4 weeks by automatic biochemical analyzer; assay type: organism-based; details: in vivo, 672 h
[11] = Toxicity in high-fat diet induced obese male C57BL/6 mouse model assessed as effect on TBIL level in serum at 20 mg/kg/day, po measured after 4 weeks by automatic biochemical analyzer; assay type: organism-based; details: in vivo, 672 h
Mus musculus [12] = test: Hepatoprotective activity in high-fat diet induced obese male C57BL/6 mouse model assessed reduction in hepatocyte steatosis at 20 mg/kg, po administered everyday for 4 weeks by H and E staining based analysis; assay type: functional, organism-based
Mus musculus [13] = test: Hepatoprotective activity in high-fat diet induced obese male C57BL/6 mouse model assessed reduction in inflammatory cell infiltration at 20 mg/kg, po administered everyday for 4 weeks by H and E staining based analysis; assay type: functional, organism-based
Mus musculus [14] = test: Hepatoprotective activity in high-fat diet induced obese male C57BL/6 mouse model assessed as reduction in LDL-C level in serum at 20 mg/kg/day, po measured after 4 weeks by automatic biochemical analyzer; assay type: functional, organism-based
Mus musculus [15] = test: Hepatoprotective activity in high-fat diet induced obese male C57BL/6 mouse model assessed as reduction in TC level in serum at 20 mg/kg/day, po measured after 4 weeks by automatic biochemical analyzer; assay type: functional, organism-based
Mus musculus [16] = test: Hepatoprotective activity in high-fat diet induced obese male C57BL/6 mouse model assessed as reduction in TG level in serum at 20 mg/kg/day, po measured after 4 weeks by automatic biochemical analyzer; assay type: functional, organism-based
Mus musculus [17] = test: Hepatoprotective activity in high-fat diet induced obese male C57BL/6 mouse model assessed as decrease in IL-6 level in liver at 20 mg/kg/day, po measured after 4 weeks by ELISA method; assay type: functional, organism-based
Mus musculus [18] = test: Hepatoprotective activity in high-fat diet induced obese male C57BL/6 mouse model assessed as decrease in IL-1 beta level in liver at 20 mg/kg/day, po measured after 4 weeks by ELISA method; assay type: functional, organism-based
Mus musculus [19] = test: Hepatoprotective activity in high-fat diet induced obese male C57BL/6 mouse model assessed as decrease in MCP-1 level in liver at 20 mg/kg/day, po measured after 4 weeks by ELISA method; assay type: functional, organism-based
Mus musculus [20] = test: Hepatoprotective activity in high-fat diet induced obese male C57BL/6 mouse model assessed as decrease in TNF-alpha level in liver at 20 mg/kg/day, po measured after 4 weeks by ELISA method; assay type: functional, organism-based

Structure (SMILES): O=C(O)CCCCCCCOc1cccc(NS(=O)(=O)c2cccc3cccnc23)c1
- inhibition [1]: 69.3%
- IC50 [2]: 3020 nM

Structure (SMILES): O=C(O)CNC(=O)CNC(=O)c1ccc(NS(=O)(=O)c2cccc3cccnc23)cc1
- inhibition [1]: 11.9%

Structure (SMILES): O=C(O)CNC(=O)CNS(=O)(=O)c1cccc2cccnc12
- inhibition [1]: 10.1%

Structure (SMILES): O=C(O)C1(C(=O)N2CCN(S(=O)(=O)c3ccc(-c4ccccc4)cc3)CC2)CC1
- inhibition [1]: 21.1%

Structure (SMILES): O=C(O)CCCCCCCOc1cccc(NS(=O)(=O)c2ccc(-c3ccccc3)cc2)c1
- inhibition [1]: 73.5%
- IC50 [2]: 3240 nM

Structure (SMILES): O=C(O)C1(c2cccc(-c3ccc(OCc4c(-c5c(Cl)cccc5Cl)noc4C4CC4)cc3)c2)CC1
- IC50 [3]: 6.2 µM

Structure (SMILES): O=C(O)CC(=O)N1CCN(S(=O)(=O)c2ccc(-c3ccccc3)cc2)CC1
- inhibition [1]: 13.4%

Structure (SMILES): CCc1c(-c2ccccc2)c(-c2ccccc2)nn1-c1ccccc1-c1cccc(OCC(=O)O)c1
- IC50 [2]: 2710 nM

Structure (SMILES): O=C(O)CCNC(=O)c1ccc(NS(=O)(=O)c2cccc3cccnc23)cc1
- inhibition [1]: 15.3%

Structure (SMILES): O=C(O)c1ccc(NS(=O)(=O)c2cccc3cccnc23)cc1
- inhibition [1]: 1.28%

Structure (SMILES): O=C(O)c1cccc(NS(=O)(=O)c2cccc3cccnc23)c1
- inhibition [1]: 8.28%

Structure (SMILES): CSCCC(NS(=O)(=O)c1cccc2cccnc12)C(=O)O (stereo not given)
- inhibition [1]: 20.9%

Structure (SMILES): O=C(O)CC[C@H](NC(=O)c1ccc(NS(=O)(=O)c2cccc3cccnc23)cc1)C(=O)O
- inhibition [1]: 12.2%

Structure (SMILES): O=C(O)CC(=O)N1CCN(C(=O)c2ccc(NS(=O)(=O)c3cccc4cccnc34)cc2)CC1
- inhibition [1]: 23.8%

Structure (SMILES): O=C(O)CCCCCCCOc1ccc(NS(=O)(=O)c2cccc3cccnc23)cc1
- inhibition [1]: 72.5%
- IC50 [2]: 2440 nM

Structure (SMILES): O=C(O)C[C@H](NC(=O)c1ccc(NS(=O)(=O)c2cccc3cccnc23)cc1)C(=O)O
- inhibition [1]: 13.1%

Structure (SMILES): O=S(=O)(c1ccc(-c2ccccc2)cc1)N1CCNCC1
- inhibition [1]: 0.18%

Structure (SMILES): O=C(O)CNC(=O)c1ccc(NS(=O)(=O)c2cccc3cccnc23)cc1
- inhibition [1]: 16.1%

Now from value to compound, other results behind:

- inhibition [1]: 3.47%
Structure (SMILES): O=C(O)CCNS(=O)(=O)c1cccc2cccnc12

- inhibition [1]: 52.7%
- IC50 [2]: 5660 nM
Structure (SMILES): O=S(=O)(c1ccccc1-c1ccc(F)cc1)N1CCN(S(=O)(=O)c2cccc3cccnc23)CC1

- inhibition [1]: 13.7%
Structure (SMILES): O=C(O)C1CCCN(S(=O)(=O)c2cccc3cccnc23)C1 (stereo not given)

- inhibition [1]: 4.26%
Structure (SMILES): O=C(O)CNS(=O)(=O)c1cccc2cccnc12

- inhibition [1]: 31.6%
Structure (SMILES): O=C(O)CCC(NC(=O)N1CCN(S(=O)(=O)c2cccc3cccnc23)CC1)C(=O)O (stereo not given)

- inhibition [1]: 29.9%
Structure (SMILES): O=C(c1ccc(NS(=O)(=O)c2cccc3cccnc23)cc1)N1CCN(C(=O)C2(C(=O)O)CC2)CC1

- inhibition [1]: 78.1%
- IC50 [2]: 1180 nM
- IC50 [3]: > 80 µM
Structure (SMILES): O=S(=O)(c1ccccc1-c1cccc(O)c1)N1CCN(S(=O)(=O)c2cccc3cccnc23)CC1
- Activity (Mus musculus [4]): Active
- Activity (Mus musculus [5]): Active
- Activity [6]: Non-Toxic
- Activity [7]: Non-Toxic
- Activity [8]: Non-Toxic
- Activity [9]: Non-Toxic
- Activity [10]: Non-Toxic
- Activity [11]: Non-Toxic
- Activity (Mus musculus [12]): Active
- Activity (Mus musculus [13]): Active
- Activity (Mus musculus [14]): Active
- Activity (Mus musculus [15]): Active
- Activity (Mus musculus [16]): Active
- Activity (Mus musculus [17]): Active
- Activity (Mus musculus [18]): Active
- Activity (Mus musculus [19]): Active
- Activity (Mus musculus [20]): Active

- inhibition [1]: 63.8%
- IC50 [2]: 6110 nM
Structure (SMILES): Cc1cc(F)ccc1-c1ccccc1S(=O)(=O)N1CCN(S(=O)(=O)c2cccc3cccnc23)CC1

- inhibition [1]: 20.3%
Structure (SMILES): CC1CN(S(=O)(=O)c2cccc3cccnc23)CCN1C(=O)CC(=O)O (stereo not given)

- inhibition [1]: 68.3%
- IC50 [2]: 2110 nM
Structure (SMILES): O=C(O)c1ccc(-c2ccccc2S(=O)(=O)N2CCN(S(=O)(=O)c3cccc4cccnc34)CC2)cc1

- inhibition [1]: 12.1%
Structure (SMILES): O=C(O)CC(NC(=O)C1CCCN(S(=O)(=O)c2cccc3cccnc23)C1)C(=O)O (stereo not given)

- inhibition [1]: 61.2%
- IC50 [2]: 2660 nM
Structure (SMILES): N#Cc1ccc(-c2ccccc2S(=O)(=O)N2CCN(S(=O)(=O)c3cccc4cccnc34)CC2)cc1

- inhibition [1]: 26.2%
Structure (SMILES): O=C(O)CC(=O)N1CCN(S(=O)(=O)c2cccc3cccnc23)CC1

- inhibition [1]: 10.3%
Structure (SMILES): O=C(O)CCC(NC(=O)C1CCCN(S(=O)(=O)c2cccc3cccnc23)C1)C(=O)O (stereo not given)

- inhibition [1]: 11.5%
Structure (SMILES): O=C(C1CCCN(S(=O)(=O)c2cccc3cccnc23)C1)N1CCNCC1 (stereo not given)

- inhibition [1]: 30.5%
Structure (SMILES): O=C(O)C1(C(=O)N2CCN(S(=O)(=O)c3cccc4cccnc34)CC2)CC1
